Test results published in US6258790A, “Antisense modulation of integrin α4 expression” (Isis Pharmaceuticals, Inc., priority 1999, dated 2001).

Tests used:
[1] = system: Mouse experimental autoimmune encephalomyelitis (EAE); experiment: Mouse experimental autoimmune encephalomyelitis (EAE) model for multiple sclerosis; assay type: in vivo, mouse (CSJLF-1); details: for Peak Severity: score 0 to 5; for effect on EAE given therapeutically: therapeutic
human integrin α4 mRNA = experiment: Integrin α4 mRNA levels in A375 melanoma cells by real-time quantitative PCR; assay type: cell-based; details: 24 hours, electroporation
Description: Quantitation of integrin α4 mRNA levels was performed by real-time quantitative PCR using the ABI PRISM™ 7700 Sequence Detection System (PE-Applied Biosystems, Foster City, Calif.) according to manufacturer's instructions. This is a closed-tube, non-gel-based, fluorescence detection system which allows high-throughput quantitation of polymerase chain reaction (PCR) products in real-time. As opposed to standard PCR, in which amplification products are quantitated after the PCR is completed, products in real-time quantitative PCR are quantitated as they accumulate. This is accomplished by including in the PCR reaction an oligonucleotide probe that anneals specifically between the forward and reverse PCR primers, and contains two fluorescent dyes. A reporter dye (e.g., JOE or FAM, obtained from either Operon Technologies Inc., Alameda, Calif. or PE-Applied Biosystems, Foster City, Calif.) is attached to the 5' end of the probe and a quencher dye (e.g., TAMRA, obtained from either Operon Technologies Inc., Alameda, Calif. or PE-Applied Biosystems, Foster City, Calif.) is attached to the 3' end of the probe. When the probe and dyes are intact, reporter dye emission is quenched by the proximity of the 3' quencher dye. During amplification, annealing of the probe to the target sequence creates a substrate that can be cleaved by the 5'-exonuclease activity of Taq polymerase. […] With each cycle, additional reporter dye molecules are cleaved from their respective probes, and the fluorescence intensity is monitored at regular intervals by laser optics built into the ABI PRISM™ 7700 Sequence Detection System. In each assay, a series of parallel reactions containing serial dilutions of mRNA from untreated control samples generates a standard curve that is used to quantitate the percent inhibition after antisense oligonucleotide treatment of test samples.
PCR reagents were obtained from PE-Applied Biosystems, Foster City, Calif. RT-PCR reactions were carried out by adding 20 μL PCR cocktail (1×TAQMANT buffer A, 5.5 mM MgCl2, 300 μM each of dATP, dCTP and dGTP, 600 μM of dUTP, 400 nM each of forward primer and reverse primer (or 100 nM in the case of G3PDH), 100 nM probe, 20 Units RNAse inhibitor, 1.25 Units AMPLITAQ GOLD™, and 12.5 Units MuLV reverse transcriptase) to 5 μL (100 ng) total mRNA solution, purified using the RNEasy™ kit (Qiagen, Valencia Calif.). The RT reaction was carried out by incubation for 30 minutes at 48° C. Following a 10 minute incubation at 95° C. to activate the AMPLITAQ GOLD™, 40 cycles of a two-step PCR protocol were carried out: 95° C. for 15 seconds (denaturation) followed by 60° C. for 1.5 minutes (annealing/extension). Integrin α4 probes and primers were designed to hybridize to the human integrin α4 sequence, using published sequence information (GenBank accession number L12002), incorporated herein as SEQ ID NO:1).
For integrin α4 the PCR primers were: forward primer: GACACGCTGCGCCTCAT (SEQ ID NO: 94, hybridizes at position 319-335 of Genbank accession no. L12002) reverse primer: […] (SEQ ID NO: 95, hybridizes at position 391-412 of Genbank accession no. L12002) and the PCR probe was: FAM-[…]-TAMRA (probe is SEQ ID NO: 96; hybridizes at position 361-382 of Genbank accession no. L12002) where FAM (PE-Applied Biosystems, Foster City, Calif.) is the fluorescent reporter dye) and TAMRA (PE-Applied Biosystems, Foster City, Calif.) is the quencher dye. […]

[2] = EAE Experiment 1, 1 mg/kg daily SC
[3] = EAE Experiment 1, 5 mg/kg daily SC
[4] = EAE Experiment 1, 10 mg/kg daily SC
[5] = EAE Experiment 1, 20 mg/kg daily SC
[6] = EAE Experiment 3, 1 mg/kg 3× weekly
[7] = EAE Experiment 4, 0.01 mg/kg, prophylactic (P)
[8] = EAE Experiment 4, 0.1 mg/kg SC, prophylactic (P)
[9] = EAE Experiment 4, 1.0 mg/kg SC, prophylactic (P)
[10] = EAE Experiment 4, 1 mg/kg, therapeutic (T), day 18 to 31
[11] = EAE Experiment 4, 2.0 mg/kg SC, prophylactic (P)
[12] = EAE Experiment 5, 0.01 mg/kg, prophylactic (P)
[13] = EAE Experiment 5, 0.1 mg/kg SC, prophylactic (P)
[14] = EAE Experiment 5, 1.0 mg/kg SC, prophylactic (P)
[15] = EAE Experiment 5, 1 mg/kg, therapeutic (T), day 11 to 27
[16] = EAE Experiment 5, 2.0 mg/kg SC, prophylactic (P)

## 17044 (CCGCAGCCATGCGCTCTTGG; phosphorothioate, 2'-MOE/deoxy, further chemistry not given here) [compound 17044]
[1]; EAE Experiment 1
  effect on EAE: reduced disease severity or delayed disease onset
[1]; [2]
  Days to Onset: 17.25 days
  Disease Incidence: 4/7
  Peak Severity: 0.29
[1]; [3]
  Days to Onset: 17 days
  Disease Incidence: 6/7
  Peak Severity: 1.86
[1]; [4]
  Days to Onset: 12.75 days
  Disease Incidence: 4/7
  Peak Severity: 2.0
[1]; [5]
  Days to Onset: 15 days
  Disease Incidence: 5/7
  Peak Severity: 1.43
[1]; EAE Experiment 2
  effect on EAE: reduced disease severity and delayed disease onset at all concentrations
[1]; EAE Experiment 2, 0.3 mg/kg SC
  Days to Onset: 16.57 days
  Disease Incidence: 7/7
  Peak Severity: 2.14
[1]; EAE Experiment 2, 1 mg/kg IV
  Days to Onset: 17.2 days
  Disease Incidence: 5/7
  Peak Severity: 1.42
[1]; EAE Experiment 2, 1 mg/kg SC
  Days to Onset: 18.25 days
  Disease Incidence: 4/7
  Peak Severity: 1.0
[1]; EAE Experiment 2, 3 mg/kg SC
  Days to Onset: 16.4 days
  Disease Incidence: 7/7
  Peak Severity: 2.29
[1]; EAE Experiment 3
  effect on EAE: reduced disease severity or delayed disease onset
[1]; EAE Experiment 3, 0.5 mg/kg SC
  Days to Onset: 21.4 days
  Disease Incidence: 5/6
  Peak Severity: 1.5
[1]; [6]
  Days to Onset: 20.3 days
  Disease Incidence: 6/7
  Peak Severity: 1.0
[1]; EAE Experiment 3, 1.0 mg/kg SC
  Days to Onset: 19.25 days
  Disease Incidence: 4/5
  Peak Severity: 1.5
[1]; EAE Experiment 3, 1.5 mg/kg SC
  Days to Onset: 17.5 days
  Disease Incidence: 4/7
  Peak Severity: 1.5
[1]; EAE Experiment 3, 2 mg/kg SC
  Days to Onset: 20 days
  Disease Incidence: 2/6
  Peak Severity: 0.83
[1]; [7]
  Days to Onset: 13.83 days
  Disease Incidence: 6/7
  Peak Severity: 1.86
[1]; [8]
  Days to Onset: 16.29 days
  Disease Incidence: 7/7
  Peak Severity: 1.57
[1]; [9]
  Days to Onset: 15 days
  Disease Incidence: 5/5
  Peak Severity: 2.2
[1]; [10]
  Days to Onset: 13.3 days
  Disease Incidence: 6/6
  Peak Severity: 1.83
[1]; [11]
  Days to Onset: 16.71 days
  Disease Incidence: 7/7
  Peak Severity: 2.29
[1]; EAE Experiment 4
  effect on EAE given therapeutically: reduced disease severity when given therapeutically
[1]; [12]
  Days to Onset: 11.57 days
  Disease Incidence: 7/7
  Peak Severity: 1.57
[1]; [13]
  Days to Onset: 12.67 days
  Disease Incidence: 6/7
  Peak Severity: 1.14
[1]; [14]
  Days to Onset: 11.33 days
  Disease Incidence: 6/7
  Peak Severity: 1.86
[1]; [15]
  Days to Onset: 12.71 days
  Disease Incidence: 7/7
  Peak Severity: 1.42
[1]; [16]
  Days to Onset: 12 days
  Disease Incidence: 7/7
  Peak Severity: 1.86
[1]; EAE Experiment 5
  effect on EAE given therapeutically: reduced disease severity when given therapeutically

## 107248 (antisense CTGAGTCTGTTTTCCATTCT; chemistry not given here) [compound 107248]
Human integrin α4 mRNA; 0.3 μM
  reduction of integrin α4 mRNA levels compared to control: approximately 23%
Human integrin α4 mRNA; 1 μM
  reduction of integrin α4 mRNA levels compared to control: ~38%
Human integrin α4 mRNA; 3 μM
  reduction of integrin α4 mRNA levels compared to control: ~70%
Human integrin α4 mRNA; 10 μM
  reduction of integrin α4 mRNA levels compared to control: ~80%
Human integrin α4 mRNA; 30 μM
  reduction of integrin α4 mRNA levels compared to control: ~85%
